{"source": "patent US20210386761A1", "about": "“COMPOSITION FOR PREVENTING OR TREATING INFLAMMATORY BOWEL DISEASE, CONTAINING, AS ACTIVE INGREDIENT, TAURODEOXYCHOLIC ACID OR PHARMACEUTICALLY ACCEPTABLE SALT THEREOF” (SHAPERON INC., priority 2019, published 2021)", "key": {"[1]": {"system": "TGR5 knockout (TGR5−/−) inflammatory bowel disease-induced mouse model", "assay": "Clinical symptom analysis in DSS-induced TGR5 knock-out (TGR5−/−) mouse model", "type": "in vivo", "conditions": "TGR5−/− mice, 2% DSS 10 days", "protocol": "The disease activity indexes (DAI) including body weight, body weight loss, stool consistency, and bloody stool were measured daily. DAI was scored according to the following [Table 1].\nSpecifically, C57BL/6-Gpbar1^tm1(KOMP)Vlcg mice (TGR5 KO, KOMP Repository, The Knockout Mouse Project, University of California, Davis, Calif.) were used as TGR5 knockout (TGR5^−/−) female C57BL/6 mice. The TGR5^−/− female C57BL/6 mice or TGR5 normal (WT) female C57BL/6 mice were fed with a 2% DSS solution or DPBS together with drinking water for 10 days from Day 0 of the experiment by the same method as that described in <Example 1>. DPBS or 5 mg/kg TDCA was administered to the mice by oral gavage one time a day for 11 days from Day 1 of the experiment, and the body weight and DAI were measured daily. As a control, mice freely fed with drinking water were used."}, "[2]": {"system": "lamina propria mononuclear cells (LPMC) in the colon tissue", "assay": "Inflammatory cell analysis (FACS of LPMC from colon tissue) in 2% DSS mouse model", "type": "in vivo", "conditions": "Day 7; for numbers of CD11b+, Ly6g+, Ly6c+, CD3+, CD4+, CD8+, CD19+, and MHCII+CD11c+ LPMCs in the colon tissue: FIG. 7A", "protocol": "A colon tissue was obtained from a mouse which had been subjected to an experiment by the same method as that described in <Example 2> and put into 30 ml of EDTA and dissociated by being stirred at 37° C. for 30 minutes in order to remove mucus. Next, the tissue was drained with a strainer (70 μm) and washed with warm DPBS. The washing process was repeated a total of 4 to 5 times. An enzyme mixture was prepared by adding 2.35 ml of RPMI 1640 or DMEM, 100 μl of enzyme D, 50 μl of enzyme R, and 12.5 μl of enzyme A to a gentleMACS C tube (Miltenyi Biotec, 130-096-334, Bergisch Gladbach, Germany). The tissue was transferred to the gentleMACS C tube containing the enzyme mixture and dissociated using the gentleMACS Dissociator (Miltenyi Biotec, 130-093-235, Bergisch Gladbach, Germany). Next, the reaction was conducted at 37° C. for 40 minutes in a thermal incubator (Thermo scientific, BB-15, Waltham, Mass., USA) under continuous rotation using a MACSmix Tube Rotator. The digested cells were resuspended in 4 ml of 40% Percoll solution. […]\nIn order to confirm changes in the number of inflammatory cells, FACS analysis was performed. […] Next, the cells were washed two times with DPBS, resuspended in 200 μl DAPI, then analyzed using a flow cytometer (LSR Fortessa cytometer, Mississauga, Canada), and graphed.\n(§1) Specifically, female C57BL/6 mice were fed with a 2% DSS solution together with drinking water for 7 days from Day 0 of the experiment by the same method as that described in <Example 1>, DPBS or 5 mg/kg TDCA was administered to the mice by oral gavage one time a day for 6 days from Day 1 of the experiment, and the body weight and DAI were measured daily. […]\nas §1, with “gavage” for “gavage one time a day for 6 days”, “DSS administration or 2 days before DSS administration,” for “the experiment,”"}, "TNF-α": {"system": "TNF-α", "assay": "Pro-inflammatory cytokine ELISA of colon tissue, TNF-α", "type": "in vivo, mouse", "conditions": "for TNF-α in the colon tissue: Day 7, FIG. 7B", "protocol": "In order to evaluate the clinical symptoms-improving efficacy in comparison with those by clinical prescription drugs, inflammatory bowel disease was induced by 7-day or repeated administration of 3% or 2.5% DSS solution, and tofacitinib 10 mg/kg, 5-ASA 100 mg/kg or 200 mg/kg, prednisolone 1 mg/kg, and TDCA 2.5 mg/kg were administered one time a day from the start date of DSS administration. From the start date of DSS administration, TDCA 2.5 mg/kg was administered one time a day (QD), two times a day (BID), and three times a day (TID).\nA colon was obtained from a mouse which had been subjected to an experiment by the same method as that described in <Example 2>, the peripheral colon was cut into 2 cm in length and the weight was recorded. Next, the colon was chopped into 1 mm pieces and frozen on ice, treated with 500 μl of cold DPBS containing protease inhibitor (Roche, 11836170001, Basel, Switzerland), and homogenized for 10 to 20 seconds using an electric homogenizer (IKA T10 Basic, Wilmington, SE, USA). The homogenate was centrifuged at 4° C. for 10 minutes at 12,000×g to obtain a supernatant. ELISA analysis was performed using the obtained supernatant, IL-6 DuoSet ELISA kit (R & D systems, USA), IL-1β DuoSet ELISA kit (R & D systems, USA), and TNF-α DuoSet ELISA kit (R & D systems, USA) according to the manufacturer's procedure to confirm the production of pro-inflammatory cytokines.\nSpecifically, female C57BL/6 mice were fed with a 2% DSS solution together with drinking water for 7 days from Day 0 of the experiment by the same method as that described in <Example 1>, DPBS or 5 mg/kg TDCA was administered to the mice by oral gavage from Day 1 of DSS administration or 2 days before DSS administration, and the body weight and DAI were measured daily. As a control, mice freely fed with drinking water were used. Next, the mice were sacrificed on Day 7 of the experiment by the same method as that described in <Example 3>, and the inflammatory cell and proinflammatory cytokine analysis was performed."}, "[3]": {"conditions": "DSS+TDCA group: 5 mg/kg TDCA from Day 1 of DSS"}, "[4]": {"conditions": "DSS+preTDCA group: 5 mg/kg TDCA from 2 days before DSS"}}}
{"smiles": "C[C@H](CCC(=O)NCCS(=O)(=O)O)[C@H]1CC[C@H]2[C@@H]3CC[C@@H]4C[C@H](O)CC[C@]4(C)[C@H]3C[C@H](O)[C@]12C", "note": "[TDCA, sodium taurodeoxycholic acid]", "values": [{"measurement": "initial body weight lost on Day 10", "setting": "[1]; 5 mg/kg TDCA oral gavage one time a day, FIG. 8A", "result": "about 27%"}, {"measurement": "DAI change", "setting": "[1]; 5 mg/kg TDCA, FIG. 8B", "result": "DAI was high"}, {"measurement": "survival rate", "setting": "[1]; 5 mg/kg TDCA, FIG. 8C", "result": 60, "unit": "%"}, {"measurement": "numbers of CD11b+, Ly6g+, and Ly6c+ LPMCs in the colon tissue", "setting": "[2]; 2% DSS 7 days, 5 mg/kg TDCA oral gavage, vs DSS+DPBS group, FIG. 3A", "result": "decreased"}, {"measurement": "numbers of CD11b+, Ly6g+, Ly6c+, CD3+, CD4+, CD8+, CD19+, and MHCII+CD11c+ LPMCs in the colon tissue", "setting": "[2]; [3]", "result": "decreased"}, {"measurement": "numbers of CD11b+, Ly6g+, Ly6c+, CD3+, CD4+, CD8+, CD19+, and MHCII+CD11c+ LPMCs in the colon tissue", "setting": "[2]; [4]", "result": "decreased"}, {"measurement": "concentration of TNF-α in the colon tissue, compared with clinical prescription drugs", "setting": "TNF-α; 3% DSS 7 days, TDCA 2.5 mg/kg vs tofacitinib 10 mg/kg and 5-ASA 100 mg/kg", "result": "equivalent to those by tofacitinib 10 mg/kg and 5-ASA 100 mg/kg"}, {"measurement": "TNF-α in the colon tissue", "setting": "TNF-α; [3]", "result": "decreased"}, {"measurement": "TNF-α in the colon tissue", "setting": "TNF-α; [4]", "result": "decreased"}]}
